Experimental data taken from article PMC11125126, “Synthesis, Characterisation, and In Vitro Evaluation of Biocompatibility, Antibacterial and Antitumor Activity of Imidazolium Ionic Liquids” (Pharmaceutics, 2024).
Like-named read-outs stand apart in the source and are kept apart here.

Assays:
Escherichia coli = experiment: MIC/MBC by broth dilution, pure ILs; assay type: cell-based; settings: 24 h
Text: (§1) Within the Di3A (Dipartimento di Agricoltura, Alimentazione e Ambiente, University of Catania, Italy) microbial collection, two Gram-negative strains (Escherichia coli and Pseudomonas fluorescens) and one Gram-positive strain (Listeria monocytogenes) were studied in order to define the potential efficacy of ionic liquids in relation to the different structure of the bacterial cell wall.
(§2) For the pure ILs, the minimal inhibitory concentration (MIC) and minimal bactericidal concentration (MBC) were determined in Nutrient Broth (NB, Oxoid, Basingstoke, UK) medium by broth dilution method, according to the Clinical and Laboratory Standards Institute (CLSI).
(§3) All the bacterial strains were individually grown for 24 h at 35 or 27 °C for P. fluorescens, with shaking. After the incubation period, the cells were collected by centrifugation and re-suspended in sterile NB to obtain a stock culture of 10^9 CFU/mL.
(§4) Tubes containing 5 mL of NB with decreasing concentrations of ILs (1000, 500, 250, 125, 50, 25, 12.5, 5 and 0 µg/mL) were inoculated with each bacterial stock culture at a final concentration of 10^6 CFU/mL.
(§5) Tubes were incubated at 35 or 27 °C in an orbital shaker and evaluated for the viable count of E. coli, P. fluorescens, and L. monocytogenes after 24 h by spread-plating 100 µL of each suspension on Nutrient Agar (NA, Oxoid, Basingstoke, UK) incubated for 24–48 h at 35 or 27 °C.
(§6) In this study, MIC and MBC are expressed in both µg/mL and µM to make the comparison with the literature data easy. Each experiment was performed in triplicate.

Listeria monocytogenes = experiment: MIC/MBC by broth dilution, pure ILs; assay type: cell-based; settings: 24 h
Text: as §1, §2, §3, §4, §5, §6

Pseudomonas fluorescens = experiment: MIC/MBC by broth dilution, pure ILs; assay type: cell-based; settings: 24 h
Text: as §1, §2
All the bacterial strains were individually grown for 24 h at 35 or 27 °C for P. fluorescens, with shaking. After the incubation period, the cells were collected by centrifugation and re-suspended in sterile NB to obtain a stock culture of 10^9 CFU/mL. […]
as §5, §6

HDF cells = experiment: Direct cytotoxicity test of IL powders, Alamar blue assay; assay type: cell-based, human; settings: 24 h of incubation
Procedure: (§7) Cytotoxicity studies on IL powders were carried out using human dermal fibroblast (HDF) cells (Sigma-Aldrich) and a human breast cancer cell line (MCF7). In addition, ILs loaded in PVC polymer substrates were tested for their cytocompatibility and adhesion properties on the HDF. HDF cells were cultured in 75 cm^2 cell culture flask in Dulbecco’s Modified Eagle’s Medium (DMEM) supplemented with 20% Foetal Bovine Serum (FBS), 1% non-essential amino acid (NEAA), antibiotic solution (streptomycin 100 µg/mL and penicillin 100 U/mL, Sigma Aldrich) and 2 mM L-glutamine. MCF7 cells were grown in DMEM with 10% FBS and the same antibiotics as mentioned above. The cells were maintained in a culture at 37 °C, with 5% CO2 and 95% humidity to achieve a confluent layer. Control cells were cultured in a complete medium without any compounds in tissue culture plates. Before biological testing, the samples were sterilised using a UV light for 2 h.
(§8) A direct cytotoxicity test was used to assess the in vitro cytotoxicity of IL powders. IL powders with different alkyl chains were dissolved in DMEM media to obtain solutions at various concentrations (0.5–1–5 and 10 µg/mL) to determine the best formulation.
(§9) After 24 h of incubation of IL solutions (200 µL) with seeded cells under specific environmental conditions (T = 37 °C, HR = 95%, CO2 = 5%), cell viability was tested using the Alamar blue assay (AbD Serotec, Milan, Italy) following the manufacturer’s instructions.
(§10) In summary, each well received a 200 µL aliquot of Alamar Blue^TM diluted 1:10 in phenol red-free medium and was incubated for 4 h at 37 °C, 5% CO2. Following this, 100 µL of the solution was transferred to a 96-well plate for colorimetric analysis. Wells with no cells were included to account for any background interference from the redox indicator. Optical density was immediately measured using a spectrophotometer (Victor X3, Perkin Elmer, Waltham, MA, USA) at 560 and 595 nm wavelengths. The results were presented as a percentage of cell viability compared to that of the control (cells grown on tissue culture plates).
(§11) Here, the antitumor activity and cytotoxicity of the synthetised imidazolium-based ionic liquids have been determined for breast cancer cells (MCF-7) and healthy human fibroblast (HDF) cells. […] Table 5 reports the IC50 values in µg/mL and µM to make their comparison with the literature data easy.

MCF7 cancer cells = experiment: as above; assay type: cell-based, human; settings: 24 h of incubation
Procedure: as §7, §8, §9, §10, §11

[1] = NI = no inhibition at IL maximum concentration used (1000 µM), read-out: MBC
[2] = NI = no inhibition at IL maximum concentration used (1000 µM), read-out: MIC

MIC (Escherichia coli; 10^6 CFU/mL) | MIC (Listeria monocytogenes; 10^6 CFU/mL) | Structure (SMILES) | MBC (Escherichia coli; 10^6 CFU/mL, read-out: MBC) | MIC (Escherichia coli; 10^6 CFU/mL, read-out: MIC) | MBC (Escherichia coli; [1]) | MIC (Escherichia coli; [2]) | MBC (Listeria monocytogenes; 10^6 CFU/mL, read-out: MBC) | MIC (Listeria monocytogenes; 10^6 CFU/mL, read-out: MIC) | MBC (Listeria monocytogenes; [1]) | MIC (Listeria monocytogenes; [2]) | MBC (Pseudomonas fluorescens; [1]) | MIC (Pseudomonas fluorescens; [2]) | IC50 (HDF cells; Homo sapiens, n = 3) | IC50 (HDF cells; Homo sapiens, n = 3, mean ± SD) | IC50 (MCF7 cancer cells; Homo sapiens, n = 3) | IC50 (MCF7 cancer cells; Homo sapiens, n = 3, mean ± SD) | MBC (Escherichia coli; 10^6 CFU/mL) | MBC (Listeria monocytogenes; 10^6 CFU/mL) | IC50 (HDF cells; n = 3) | IC50 HDF (HDF cells; n = 3, mean ± SD) | further results
– | – | CCCCCCCCCCCCn1cc[n+](C)c1.F[B-](F)(F)F [C12mimBF4, 1-dodecyl-3-methylimidazolium tetrafluoroborate] | 84.6 µg/mL | 16.9 µg/mL | 250 µM | 50 µM | 16.9 µg/mL | 8.46 µg/mL | 50 µM | 25 µM | 125 µM | 50 µM | 12.8 µM | 4.34 ± 0.01 µg/mL | 2.05 µg/mL | 6.06 µM | – | – | – | – | MBC (Pseudomonas fluorescens; 10^6 CFU/mL, read-out: MBC): 42.3 µg/mL; MIC (Pseudomonas fluorescens; 10^6 CFU/mL, read-out: MIC): 16.9 µg/mL
– | – | CCCCCCCCCCCCCCCCCC[n+]1ccn(C)c1.F[B-](F)(F)F [C18mimBF4] | 106 µg/mL | 52.8 µg/mL | 250 µM | 125 µM | 422 µg/mL | 211 µg/mL | 1000 µM | 500 µM | – | > 1000 µM | 10.8 µM | 4.57 ± 0.06 µg/mL | 1.95 µg/mL | 4.61 µM | – | – | – | – | –
72.60 µg/mL | 29.04 µg/mL | CCCCCCCCCCCCCCCC[n+]1ccn(C)c1.COC(=O)c1cc(C(=O)OC)cc(S(=O)(=O)[O-])c1 [C16mimDMSIP] | – | – | 125 µM | 125 µM | – | – | 125 µM | 50 µM | 250 µM | 250 µM | – | – | – | – | 72.60 µg/mL | 72.60 µg/mL | 9.57 µM | 5.56 ± 0.04 µg/mL | MBC (Pseudomonas fluorescens; 10^6 CFU/mL): 145.19 µg/mL; MIC (Pseudomonas fluorescens; 10^6 CFU/mL): 145.19 µg/mL; IC50 MCF7 (MCF7 cancer cells; n = 3): 3.84 µg/mL; IC50 (MCF7 cancer cells; n = 3, mean ± SD): 6.61 µM
– | – | CCCCCCCCCCCCCC[n+]1ccn(C)c1.F[B-](F)(F)F [C14mimBF4] | 9.16 µg/mL | 4.58 µg/mL | 25 µM | 12.5 µM | 4.58 µg/mL | 4.58 µg/mL | 12.5 µM | 12.5 µM | 125 µM | 25 µM | 10.3 µM | 3.78 ± 0.17 µg/mL | 4.41 µg/mL | 12.1 µM | – | – | – | – | MBC (Pseudomonas fluorescens; 10^6 CFU/mL, read-out: MBC): 45.8 µg/mL; MIC (Pseudomonas fluorescens; 10^6 CFU/mL, read-out: MIC): 9.16 µg/mL
26.24 µg/mL | 13.12 µg/mL | CCCCCCCCCCCCn1cc[n+](C)c1.COC(=O)c1cc(C(=O)OC)cc(S(=O)(=O)[O-])c1 [C12mimDMSIP, 1-dodecyl-3-methylimidazolium 1,3-dimethyl-5-sulfoisophthalate] | – | – | 125 µM | 50 µM | – | – | 50 µM | 25 µM | 500 µM | 125 µM | – | – | – | – | 65.58 µg/mL | 26.24 µg/mL | 10.6 µM | 5.56 ± 0.04 µg/mL | MBC (Pseudomonas fluorescens; 10^6 CFU/mL): 262.33 µg/mL; MIC (Pseudomonas fluorescens; 10^6 CFU/mL): 65.58 µg/mL; IC50 MCF7 (MCF7 cancer cells; n = 3): 4.95 µg/mL; IC50 (MCF7 cancer cells; n = 3, mean ± SD): 9.44 µM
124.16 µg/mL | 124.16 µg/mL | CCCCCCCCCC[n+]1ccn(C)c1.COC(=O)c1cc(C(=O)OC)cc(S(=O)(=O)[O-])c1 [C10mimDMSIP] | – | – | 500 µM | 250 µM | – | – | 1000 µM | 250 µM | 1000 µM | 500 µM | – | – | – | – | 248.31 µg/mL | 496.62 µg/mL | 11.2 µM | 5.56 ± 0.04 µg/mL | MBC (Pseudomonas fluorescens; 10^6 CFU/mL): 496.62 µg/mL; MIC (Pseudomonas fluorescens; 10^6 CFU/mL): 248.31 µg/mL; IC50 MCF7 (MCF7 cancer cells; n = 3): 5.42 µg/mL; IC50 (MCF7 cancer cells; n = 3, mean ± SD): 10.9 µM
608.83 µg/mL | 304.4 µg/mL | CCCCCCCCCCCCCCCCCC[n+]1ccn(C)c1.COC(=O)c1cc(C(=O)OC)cc(S(=O)(=O)[O-])c1 [C18mimDMSIP] | – | – | 1000 µM | 1000 µM | – | – | 500 µM | 500 µM | – | – | – | – | – | – | 608.83 µg/mL | 304.4 µg/mL | 6.59 µM | 4.01 ± 0.14 µg/mL | IC50 MCF7 (MCF7 cancer cells; n = 3): 1.96 µg/mL; IC50 (MCF7 cancer cells; n = 3, mean ± SD): 3.22 µM
– | – | CCCCCCCCCCCCCCCC[n+]1ccn(C)c1.F[B-](F)(F)F [C16mimBF4] | 49.3 µg/mL | 9.86 µg/mL | 125 µM | 25 µM | 98.6 µg/mL | 19.7 µg/mL | 250 µM | 50 µM | 250 µM | 125 µM | 20.9 µM | 8.26 ± 0.03 µg/mL | 1.64 µg/mL | 4.16 µM | – | – | – | – | MBC (Pseudomonas fluorescens; 10^6 CFU/mL, read-out: MBC): 98.6 µg/mL; MIC (Pseudomonas fluorescens; 10^6 CFU/mL, read-out: MIC): 49.3 µg/mL
– | – | COc1cccc2c1C(=O)c1c(O)c3c(c(O)c1C2=O)C[C@@](O)(C(=O)CO)C[C@@H]3O[C@H]1C[C@H](N)[C@H](O)[C@H](C)O1 [Doxorubicin, reference compound] | – | – | – | – | – | – | – | – | – | – | – | – | 7.2 µg/mL | 13.2 µM | – | – | – | – | –
13.82 µg/mL | 27.64 µg/mL | CCCCCCCCCCCCCC[n+]1ccn(C)c1.COC(=O)c1cc(C(=O)OC)cc(S(=O)(=O)[O-])c1 [C14mimDMSIP] | – | – | 50 µM | 25 µM | – | – | 125 µM | 50 µM | 125 µM | 50 µM | – | – | – | – | 27.64 µg/mL | 69.09 µg/mL | 10.1 µM | 5.56 ± 0.04 µg/mL | MBC (Pseudomonas fluorescens; 10^6 CFU/mL): 69.09 µg/mL; MIC (Pseudomonas fluorescens; 10^6 CFU/mL): 27.64 µg/mL; IC50 MCF7 (MCF7 cancer cells; n = 3): 2.91 µg/mL; IC50 (MCF7 cancer cells; n = 3, mean ± SD): 5.22 µM
– | – | CCCCCCCCC[n+]1ccn(C)c1.F[B-](F)(F)F [C9mimBF4] | 296 µg/mL | 296 µg/mL | 1000 µM | 1000 µM | 148 µg/mL | 148 µg/mL | 500 µM | 500 µM | – | > 1000 µM | 17.4 µM | 5.14 ± 0.1 µg/mL | > 14.8 µg/mL | > 50 µM | – | – | – | – | –
